Measured values taken from patent US10409869B2, “(R)- and (S)-1-(3-(3-N,N-dimethylaminocarbonyl)phenoxyl-4-nitrophenyl)-1-ethyl-N,N'-bis (ethylene)phosphoramidate, compositions and methods for their use and preparation” (OBI Pharma, Inc., priority 2015, dated 2019).

Experiment: Serum chemistry in monkeys, 2 mg/kg 30-min IV infusion
Format: in vivo, Cynomolgus monkeys
Experimental: TH 3423 and TH 3424 were tested in […] naïve monkeys (1 male and one female for each compound at 2 mg/kg) with 30-min intravenous infusion, TK sampling: on Day 1 and Day 15: 0.25, 0.5, 0.75, 1 and 2 hr post infusion initiation. Serum chemistry and hematology: pre-dose (Day 1), day 5, day 8 (pre-dose), day 15 (pre-dose), day 22 and day 28. Clinical observation: Daily during the study, total 35 days. Food consumption: Daily during the study, total 35 days. Bodyweight measurement: Twice weekly for five weeks.

## C[C@@H](OP(=O)(N1CC1)N1CC1)c1ccc([N+](=O)[O-])c(Oc2cccc(C(=O)N(C)C)c2)c1 (single isomer, unassigned) [TH3423]
female, Day 1 (pre-dose)
  A/G: 1.8
  ALB: 42 g/L
  ALP: 205.5 U/L
  ALT: 41.7 U/L
  AST: 43.3 U/L
  BUN: 4.06 mM
  CK: 342 U/L
  CREA: 95 µM
  Ca: 2.39 mmol/L
  GLB: 24 g/L
  Glu: 6.03 mM
  K: 6.14 mmol/L
  Na: 146 mmol/L
  TBIL: 0.0 µM
  TC: 2.48 mM
  TG: 0.45 mmol/L
  TP: 66.0 g/L
  γ-GT: 41.5 U/L
female, Day 8 (pre-dose)
  A/G: 1.3
  ALB: 40.9 g/L
  ALP: 190.3 U/L
  ALT: 25.5 U/L
  AST: 57.7 U/L
  BUN: 7.61 mM
  CK: 126 U/L
  CREA: 120 µM
  Ca: 2.47 mmol/L
  GLB: 30.9 g/L
  Glu: 2.13 mM
  K: 4.83 mmol/L
  Na: 149 mmol/L
  TBIL: 0.4 µM
  TC: 3.01 mM
  TG: 1.17 mmol/L
  TP: 71.8 g/L
  γ-GT: 37.0 U/L
female, Day 15 (pre-dose)
  A/G: 1.7
  ALB: 34.2 g/L
  ALP: 123.6 U/L
  ALT: 21.1 U/L
  AST: 76.7 U/L
  BUN: 5.96 mM
  CK: 78 U/L
  CREA: 69 µM
  Ca: 2.36 mmol/L
  GLB: 20.7 g/L
  Glu: 2.51 mM
  K: 4.81 mmol/L
  Na: 128.17 mmol/L
  TBIL: 1.4 µM
  TC: 2.02 mM
  TG: 0.84 mmol/L
  TP: 54.9 g/L
  γ-GT: 29.4 U/L
male, Day 1 (pre-dose)
  A/G: 1.8
  ALB: 46.9 g/L
  ALP: 746.4 U/L
  ALT: 45.0 U/L
  AST: 37.0 U/L
  BUN: 3.47 mM
  CK: 146 U/L
  CREA: 66 µM
  Ca: 2.54 mmol/L
  GLB: 26 g/L
  Glu: 3.12 mM
  K: 6.92 mmol/L
  Na: 143 mmol/L
  TBIL: 5.2 µM
  TC: 2.1 mM
  TG: 0.24 mmol/L
  TP: 72.9 g/L
  γ-GT: 78.4 U/L
male, Day 8 (pre-dose)
  A/G: 1.1
  ALB: 39.1 g/L
  ALP: 540.3 U/L
  ALT: 21.0 U/L
  AST: 40.8 U/L
  BUN: 26.8 mM
  CK: 153 U/L
  CREA: 141 µM
  Ca: 2.55 mmol/L
  GLB: 37.1 g/L
  Glu: 5.28 mM
  K: 5.86 mmol/L
  Na: 112 mmol/L
  TBIL: 9.8 µM
  TC: 1.72 mM
  TG: 2.25 mmol/L
  TP: 76.2 g/L
  γ-GT: 37.6 U/L

## C[C@H](OP(=O)(N1CC1)N1CC1)c1ccc([N+](=O)[O-])c(Oc2cccc(C(=O)N(C)C)c2)c1 (single isomer, unassigned) [TH3424]
female, Day 1 (pre-dose)
  A/G: 1.9
  ALB: 46.1 g/L
  ALP: 134.2 U/L
  ALT: 61.6 U/L
  AST: 23.7 U/L
  BUN: 3.43 mM
  CK: 202 U/L
  CREA: 61 µM
  Ca: 2.51 mmol/L
  GLB: 24.1 g/L
  Glu: 3.34 mM
  K: 5.77 mmol/L
  Na: 143 mmol/L
  TBIL: 1.5 µM
  TC: 3.04 mM
  TG: 0.17 mmol/L
  TP: 70.2 g/L
  γ-GT: 47.3 U/L
female, Day 8 (pre-dose)
  A/G: 1.4
  ALB: 41.8 g/L
  ALP: 200.2 U/L
  ALT: 37.7 U/L
  AST: 43.1 U/L
  BUN: 5.63 mM
  CK: 190 U/L
  CREA: 88 µM
  Ca: 2.37 mmol/L
  GLB: 30.6 g/L
  Glu: 5.91 mM
  K: 4.33 mmol/L
  Na: 143 mmol/L
  TBIL: 0.8 µM
  TC: 2.91 mM
  TG: 0.63 mmol/L
  TP: 72.4 g/L
  γ-GT: 36.2 U/L
female, Day 15 (pre-dose)
  A/G: 1.6
  ALB: 38.5 g/L
  ALP: 151.5 U/L
  ALT: 31.9 U/L
  AST: 23.8 U/L
  BUN: 3.87 mM
  CK: 78 U/L
  CREA: 46 µM
  Ca: 2.2 mmol/L
  GLB: 23.8 g/L
  Glu: 2.8 mM
  K: 5.58 mmol/L
  Na: 132.59 mmol/L
  TBIL: 4.0 µM
  TC: 2.23 mM
  TG: 0.94 mmol/L
  TP: 62.3 g/L
  γ-GT: 34.2 U/L
male, Day 1 (pre-dose)
  A/G: 2.5
  ALB: 50.5 g/L
  ALP: 287.5 U/L
  ALT: 43.0 U/L
  AST: 40.2 U/L
  BUN: 4.89 mM
  CK: 221 U/L
  CREA: 91 µM
  Ca: 2.38 mmol/L
  GLB: 19.9 g/L
  Glu: 4.5 mM
  K: 4.31 mmol/L
  Na: 147 mmol/L
  TBIL: 2.1 µM
  TC: 3.22 mM
  TG: 0.38 mmol/L
  TP: 70.4 g/L
  γ-GT: 62.2 U/L
male, Day 8 (pre-dose)
  A/G: 2.0
  ALB: 43.3 g/L
  ALP: 225.2 U/L
  ALT: 31.2 U/L
  AST: 31.2 U/L
  BUN: 4.8 mM
  CK: 83 U/L
  CREA: 96 µM
  Ca: 2.33 mmol/L
  GLB: 21.8 g/L
  Glu: 4.15 mM
  K: 4.51 mmol/L
  Na: 147 mmol/L
  TBIL: 3.6 µM
  TC: 3.06 mM
  TG: 0.66 mmol/L
  TP: 65.1 g/L
  γ-GT: 44.9 U/L
male, Day 15 (pre-dose)
  A/G: 2.2
  ALB: 36.8 g/L
  ALP: 174.8 U/L
  ALT: 45.0 U/L
  AST: 73.5 U/L
  BUN: 9.66 mM
  CK: 172 U/L
  CREA: 58 µM
  Ca: 2.14 mmol/L
  GLB: 16.4 g/L
  Glu: 1.47 mM
  K: 6.05 mmol/L
  Na: 136.14 mmol/L
  TBIL: 2.1 µM
  TC: 1.44 mM
  TG: 0.41 mmol/L
  TP: 53.2 g/L
  γ-GT: 36.7 U/L
